Test results taken from US7858796B2, “Chemical compounds” (Glaxo Group Limited, priority 2004, dated 2010).

Tested on: human monocyte stimulated cytokine production (TNF-α)
Experiment: Monocyte Assay (LPS-stimulated TNF-α production)
Type: cell-based
Conditions: human CD14+ monocytes, 200 ng/mL LPS, 24 hrs, TNF-α by ELISA
Experimental: Effect of IKK-β inhibition on human monocyte stimulated cytokine production was assessed as follows: Monocytes were isolated from heparinized whole blood by Ficoll gradient, followed by purification of CD14+ cells using MACS magnetic cell separation beads. Isolated monocytes were then adhered to 96-well culture plates at 1×10^6 cells/mL in RPMI 1640 10% FBS (JRH Biosciences, Lenexa Kans.) for 2 h. to further enrich the monocyte population. The media was then removed, cells washed once with RPMI 1640, and 0.125 mL RPMI 1640 10% FBS was added to the wells. Test compounds are added to the wells 30 minutes prior to stimulation with a final vehicle concentration of 0.1% DMSO. Monocytes were activated by the addition of 200 ng/mL endotoxin (LPS; E. coli serotype 026:B6) (Sigma, St. Louis, Mo.) and incubated for 24 hrs at 37 C. Cell-free supernates were analyzed by ELISA for TNF-α using Pharmingen matched pair Abs. Viability of the cells was determined by10% trypan blue exclusion.

IC50	Compound
< 10 µM	Cn1cnc(S(=O)(=O)N2CCC(c3c[nH]c4c(C(N)=O)cc(-c5ccccc5)cc34)CC2)c1 [Example 267, 3-{1-[(1-methyl-1H-imidazol-4-yl)sulfonyl]-4-piperidinyl}-5-phenyl-1H-indole-7-carboxamide]
< 10 µM	Cn1cnc(S(=O)(=O)N2CCC(c3c[nH]c4c(C(N)=O)cc(-c5ccsc5)cc34)CC2)c1 [Example 280, 3-{1-[(1-methyl-1H-imidazol-4-yl)sulfonyl]-4-piperidinyl}-5-(3-thienyl)-1H-indole-7-carboxamide]
< 10 µM	Cc1nc(C)c(S(=O)(=O)N2CCC(c3c[nH]c4c(C(N)=O)cc(-c5ccccc5)cc34)CC2)s1 [Example 278, 3-{1-[(2,4-dimethyl-1,3-thiazol-5-yl)sulfonyl]-4-piperidinyl}-5-phenyl-1H-indole-7-carboxamide]
< 10 µM	COCCCS(=O)(=O)N1CCC(c2c[nH]c3c(C(N)=O)cc(-c4cccs4)cc23)CC1 [Example 262, 3-(1-{[3-(methyloxy)propyl]sulfonyl}-4-piperidinyl)-5-(2-thienyl)-1H-indole-7-carboxamide]
< 10 µM	CONCCCS(=O)(=O)N1CCC(c2c[nH]c3c(C(N)=O)cc(-c4ccccc4)cc23)CC1 [Example 219, 3-[1-({3-[(methyloxy)amino]propyl}sulfonyl)-4-piperidinyl]-5-phenyl-1H-indole-7-carboxamide]
< 10 µM	NC(=O)c1cc(-c2ccccc2)cc2c(C3CCN(S(=O)(=O)c4ccc(CNCc5ccccc5)s4)CC3)c[nH]c12 [Example 271, 5-phenyl-3-{1-[(5-{[(phenylmethyl)amino]methyl}-2-thienyl)sulfonyl]-4-piperidinyl}-1H-indole-7-carboxamide]
< 10 µM	Cc1nn(C)c(C)c1S(=O)(=O)N1CCC(c2c[nH]c3c(C(N)=O)cc(-c4ccccc4)cc23)CC1 [Example 276, 5-phenyl-3-{1-[(1,3,5-trimethyl-1H-pyrazol-4-yl)sulfonyl]-4-piperidinyl}-1H-indole-7-carboxamide]
< 10 µM	NC(=O)c1cc(-c2ccccc2)cc2c(C3CCN(S(=O)(=O)c4ccc5nonc5c4Cl)CC3)c[nH]c12 [Example 274, 3-{1-[(4-chloro-2,1,3-benzoxadiazol-5-yl)sulfonyl]-4-piperidinyl}-5-phenyl-1H-indole-7-carboxamide]
< 10 µM	NC(=O)c1cc(-c2ccccc2)cc2c(C3CCN(S(=O)(=O)c4ccsc4)CC3)c[nH]c12 [Example 311, 5-phenyl-3-[1-(3-thienylsulfonyl)piperidin-4-yl]-1H-indole-7-carboxamide]
< 10 µM	Cc1ncc(S(=O)(=O)N2CCC(c3c[nH]c4c(C(N)=O)cc(-c5ccccc5)cc34)CC2)n1C [Example 279, 3-{1-[(1,2-dimethyl-1H-imidazol-5-yl)sulfonyl]-4-piperidinyl}-5-phenyl-1H-indole-7-carboxamide]
< 10 µM	CNCc1cccc(-c2cc(C(N)=O)c3[nH]cc(C4CCN(S(=O)(=O)CCCOC)CC4)c3c2)c1 [Example 223, 5-{3-[(methylamino)methyl]phenyl}-3-(1-{[3-(methyloxy)propyl]sulfonyl}-4-piperidinyl)-1H-indole-7-carboxamide]

The remaining lines, values behind:

Compound	IC50
NC(=O)c1cc(-c2ccccc2)cc2c(C3CCN(S(=O)(=O)CCCNC4CCNCC4)CC3)c[nH]c12 [Example 109, 5-phenyl-3-(1-{[3-(4-piperidinylamino)propyl]sulfonyl}-4-piperidinyl)-11 indole-7-carboxamide]	< 10 µM
CN1CCN(CCCS(=O)(=O)N2CCC(c3c[nH]c4c(C(N)=O)cc(-c5ccsc5)cc34)CC2)CC1 [Example 72, 3-(1-{[3-(4-methyl-1-piperazinyl)propyl]sulfonyl}-4-piperidinyl)-5-(3-thienyl)-1H-indole-7-carboxamide]	< 10 µM
CN1CCN(CCCS(=O)(=O)N2CCC(c3c[nH]c4c(C(N)=O)cc(-c5cccs5)cc34)CC2)CC1 [Example 70, 3-(1-{[3-(4-methyl-1-piperazinyl)propyl]sulfonyl}-4-piperidinyl)-5-(2-thienyl)-1H-indole-7-carboxamide]	< 10 µM
NC(=O)c1cc(-c2ccccc2)cc2c(C3CCN(S(=O)(=O)CCCO)CC3)c[nH]c12 [Example 174, 3-{1-[(3-hydroxypropyl)sulfonyl]-4-piperidinyl}-5-phenyl-1H-indole-7-carboxamide]	< 10 µM
CN(C)CCS(=O)(=O)N1CCC(c2c[nH]c3c(C(N)=O)cc(-c4ccccc4)cc23)CC1 [Example 2, 3-(1-{[2-(dimethylamino)ethyl]sulfonyl}-4-piperidinyl)-5-phenyl-1H-indole-7-carboxamide]	< 10 µM
CCNCc1ccc(-c2cc(C(N)=O)c3[nH]cc(C4CCN(S(=O)(=O)CCCN5CCOCC5)CC4)c3c2)s1 [Example 66, 5-{5-[(ethylamino)methyl]-2-thienyl}-3-(1-{[3-(4-morpholinyl)propyl]sulfonyl}-4-piperidinyl)-1H-indole-7-carboxamide]	< 10 µM
NC(=O)c1cc(-c2ccccc2)cc2c(C3CCN(S(=O)(=O)CCCN4CCCCC4)CC3)c[nH]c12 [Example 5, 5-phenyl-3-(1-{[3-(1-piperidinyl)propyl]sulfonyl}-4-piperidinyl)-1H-indole-7-carboxamide]	< 10 µM
CNCCS(=O)(=O)N1CCC(c2c[nH]c3c(C(N)=O)cc(-c4ccccc4)cc23)CC1 [Example 22, 3-(1-{[2-(methylamino)ethyl]sulfonyl}-4-piperidinyl)-5-phenyl-1H-indole-7-carboxamide]	< 10 µM
CNCc1ccc(-c2cc(C(N)=O)c3[nH]cc(C4CCN(S(=O)(=O)CCCN5CCOCC5)CC4)c3c2)s1 [Example 65, 5-{5-[(methylamino)methyl]-2-thienyl}-3-(1-{[3-(4-morpholinyl)propyl]sulfonyl}-4-piperidinyl)-1H-indole-7-carboxamide]	< 10 µM
C[C@@H]1CC[C@@H](C)N1CCCS(=O)(=O)N1CCC(c2c[nH]c3c(C(N)=O)cc(-c4ccccc4)cc23)CC1 [Example 69, 3-[1-({3-[(2R,5R)-2,5-dimethyl-1-pyrrolidinyl]propyl}sulfonyl)-4-piperidinyl]-5-phenyl-1H-indole-7-carboxamide]	< 10 µM
NC(=O)c1cc(-c2ccccc2)cc2c(C3CCN(S(=O)(=O)CCOCCN4CCCCC4)CC3)c[nH]c12 [Example 178, 5-phenyl-3-{1-[(2-{[2-(1-piperidinyl)ethyl]oxy}ethyl)sulfonyl]-4-piperidinyl}-1H-indole-7-carboxamide]	< 10 µM
CC(C)N(CCCS(=O)(=O)N1CCC(c2c[nH]c3c(C(N)=O)cc(-c4ccccc4)cc23)CC1)C(C)C [Example 67, 3-[1-({3-[bis(1-methylethyl)amino]propyl}sulfonyl)-4-piperidinyl]-5-phenyl-1H-indole-7-carboxamide]	< 10 µM
NC(=O)c1cc(-c2ccccc2)cc2c(C3CCN(S(=O)(=O)CCCN4CCOCC4)CC3)c[nH]c12 [Example 6, 3-(1-{[3-(4-morpholinyl)propyl]sulfonyl}-4-piperidinyl)-5-phenyl-1H-indole-7-carboxamide]	< 10 µM
NC(=O)c1cc(-c2cccs2)cc2c(C3CCN(S(=O)(=O)CCNC4CCCC4)CC3)c[nH]c12 [Example 15, 3-(1-{[2-(cyclopentylamino)ethyl]sulfonyl}-4-piperidinyl)-5-(2-thienyl)-1H-indole-7-carboxamide]	< 10 µM
